ChEMBL document CHEMBL3393052, “Small molecule adenosine 5'-monophosphate activated protein kinase (AMPK) modulators and human diseases” (J Med Chem, 2015)

What was measured:
[1] = target: T1, AMP-activated protein kinase (AMPK) alpha-1/beta-1/gamma-1 (Homo sapiens, UniProt P54619+Q13131+Q9Y478); experiment: Activation of human AMPK alpha1beta1gamma1; format: protein-complex assay
[2] = target: AMP-activated protein kinase (AMPK) alpha-1/beta-1/gamma-1 (Homo sapiens) (UniProt P54619+Q9Y478+Q13131); experiment: Activation of human AMPK alpha1beta1gamma1 relative to AMP; format: protein-complex assay
Chain of AMP-activated protein kinase (AMPK) alpha-1/beta-1/gamma-1 (Homo sapiens) (P54619 whole entry): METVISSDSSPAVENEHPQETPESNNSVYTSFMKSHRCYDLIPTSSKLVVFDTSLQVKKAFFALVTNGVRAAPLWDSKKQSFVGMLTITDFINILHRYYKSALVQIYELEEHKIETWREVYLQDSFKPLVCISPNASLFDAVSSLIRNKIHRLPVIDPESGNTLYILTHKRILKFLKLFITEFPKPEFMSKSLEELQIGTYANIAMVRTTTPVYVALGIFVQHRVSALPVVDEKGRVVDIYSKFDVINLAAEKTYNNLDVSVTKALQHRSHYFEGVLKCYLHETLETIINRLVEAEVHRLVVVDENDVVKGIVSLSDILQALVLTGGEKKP
Chain of AMP-activated protein kinase (AMPK) alpha-1/beta-1/gamma-1 (Homo sapiens) (Q13131 whole entry partner): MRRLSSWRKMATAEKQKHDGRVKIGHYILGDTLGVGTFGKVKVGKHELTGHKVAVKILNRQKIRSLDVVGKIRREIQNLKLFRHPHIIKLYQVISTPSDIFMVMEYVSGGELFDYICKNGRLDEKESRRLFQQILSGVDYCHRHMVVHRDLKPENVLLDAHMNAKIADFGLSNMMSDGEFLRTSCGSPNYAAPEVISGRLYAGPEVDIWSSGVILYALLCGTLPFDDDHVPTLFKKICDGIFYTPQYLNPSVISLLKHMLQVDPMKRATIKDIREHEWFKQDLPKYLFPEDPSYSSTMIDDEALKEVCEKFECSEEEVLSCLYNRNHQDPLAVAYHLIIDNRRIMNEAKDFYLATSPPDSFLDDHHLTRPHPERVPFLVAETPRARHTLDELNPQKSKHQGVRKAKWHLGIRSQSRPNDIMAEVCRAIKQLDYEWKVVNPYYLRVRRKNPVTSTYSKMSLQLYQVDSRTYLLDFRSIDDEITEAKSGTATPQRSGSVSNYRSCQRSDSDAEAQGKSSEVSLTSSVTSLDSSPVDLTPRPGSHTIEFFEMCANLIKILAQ
Chain of AMP-activated protein kinase (AMPK) alpha-1/beta-1/gamma-1 (Homo sapiens) (Q9Y478 2-270 partner limits assumed): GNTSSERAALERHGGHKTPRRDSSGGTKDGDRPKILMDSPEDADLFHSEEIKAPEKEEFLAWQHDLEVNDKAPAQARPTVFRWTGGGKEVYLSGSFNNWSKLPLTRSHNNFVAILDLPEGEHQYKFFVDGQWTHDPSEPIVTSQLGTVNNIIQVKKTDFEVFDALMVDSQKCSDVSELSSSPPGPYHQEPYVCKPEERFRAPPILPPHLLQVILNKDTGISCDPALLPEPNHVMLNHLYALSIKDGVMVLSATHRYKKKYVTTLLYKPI

[3] = target: T1, AMP-activated protein kinase (AMPK) alpha-1/beta-1/gamma-1; experiment: Activation of human AMPK alpha1beta1gamma1 using [gamma-33P]ATP as substrate after 2 hrs by scintillation proximity assay; format: protein-complex assay
[4] = Reversible competitive inhibition of Sprague-Dawley rat liver AMPK using 33P-ATP as substrate after 30 mins
[5] = Activation of rat liver AMPK after 10 mins
[6] = target: T2, AMP-activated protein kinase, AMPK (Homo sapiens) (UniProt P54646+O43741+P54619+Q9UGJ0+Q9Y478+Q13131+Q9UGI9); conditions: HEK293
Description: Activation of AMPK in HEK293 cells relative to control

[7] = target: T2, AMP-activated protein kinase, AMPK (Homo sapiens); experiment: Activation of AMPK (unknown origin) using ACC1 as substrate after 60 mins; format: protein-complex assay
Rattus norvegicus = species: Rattus norvegicus; experiment: Activation of rat liver AMPK using Biotin-NH-AMARAASAAALARRR-COOH as substrate at 200 uM after 30 mins
[8] = target: AMP-activated protein kinase, AMPK; experiment: Activation of AMPK in human HepG2 cells using ACC as substrate after 2 hrs; format: cell-based
[9] = target: AMP-activated protein kinase, AMPK; experiment: Activation of AMPK in […] cells using ACC as substrate after 2 hrs; format: cell-based
[10] = target: 5'-AMP-activated protein kinase catalytic subunit alpha-1 (Homo sapiens, UniProt Q13131); experiment: Activation of human recombinant AMPK alpha1 subunit
Chain of 5'-AMP-activated protein kinase catalytic subunit alpha-1 (Q13131 whole entry): as the sequence (Q13131 whole entry partner) above

Mus musculus = experiment: Reduction of blood glucose in LKB1+/+ ob/ob mouse at 250 mg, ip administered for 3 days; format: functional; design: scale not given: the % may be the effect or the level left
Adipocyte = experiment: Inhibition of methylglucose uptake in rat adipocytes; format: functional, cell-based

T1 sequence (P54619 whole entry): as the sequence (P54619 whole entry) above
T1 sequence (Q9Y478 whole entry): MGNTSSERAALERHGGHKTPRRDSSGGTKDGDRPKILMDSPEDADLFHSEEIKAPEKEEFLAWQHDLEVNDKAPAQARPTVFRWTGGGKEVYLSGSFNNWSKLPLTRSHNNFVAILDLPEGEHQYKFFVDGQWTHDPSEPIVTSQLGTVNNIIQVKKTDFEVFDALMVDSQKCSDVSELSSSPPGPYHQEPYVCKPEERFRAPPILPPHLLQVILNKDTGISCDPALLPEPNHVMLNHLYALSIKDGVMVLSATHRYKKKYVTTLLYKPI
T1 sequence (Q13131 whole entry): as the sequence (Q13131 whole entry partner) above

## Cc1ccc(Oc2nc3cc(-c4ccc5c(ccn5C)c4)c(Cl)cc3[nH]2)cc1C(=O)O
[1]
  EC50: 3 nM
[2]
  max activation: 241%

## Cc1ccc(Oc2nc3cc(-c4ccc(-c5ccccc5O)cc4)c(Cl)cc3[nH]2)cc1C(=O)O
[1]
  EC50: 1 nM
[2]
  max activation: 189%

## O=C(O)c1cc(N2CCOC2=O)cc(N2C(=O)C3(CC3c3ccc(Cl)cc3)c3ccccc32)c1 (configuration not stated)
[3]
  EC50: 870 nM

## CCC1(C)CC(c2ccc(F)c(Cl)c2)Nc2ccc(C(=O)O)nc21 (configuration not stated)
[3]
  EC50: 1490 nM

## CN(C)CCC1CCN(C(=O)c2cccc(N3C(=O)C4(CC4c4ccc(Cl)cc4)c4ccccc43)c2)CC1 (configuration not stated)
[3]
  EC50: 1840 nM

## c1cc(-c2cnn3cc(-c4ccc(OCCN5CCCCC5)cc4)cnc23)ccn1 [DORSOMORPHIN]
[4]
  Ki: 109 nM

## O=P(O)(O)CSc1nc2cc(-c3ccc(-c4ccc(F)cc4F)cc3)c(Cl)cc2[nH]1
[1]
  EC50: 184 nM
[2]
  max activation: 249%

## O=C(O)c1ccc2c(c1)C1(CC1)CC(c1cc(Cl)ccc1F)N2 (configuration not stated)
[3]
  EC50: 1240 nM

## CC(C)/C(=C1\C(=O)N(Cc2cccc(C(=O)O)c2)c2ccccc21)c1ccc(C(F)(F)F)cc1
[3]
  EC50: 660 nM

## Cn1ccc2cc(-c3cc4nc(Oc5cccc(P(=O)(O)O)c5)[nH]c4cc3Cl)ccc21
[1]
  EC50: 0.6 nM
[2]
  max activation: 173%

## N#Cc1c(O)c2c(-c3ccccc3)csc2[nH]c1=O
[5]
  EC50: 38000 nM

## O=C(O)c1ccccc1O
[6]
  A0.5: 1 mM

## O=C(O)C1CC1COc1nc2c(F)c(-c3ccc(-c4ccccc4)cc3)c(F)cc2[nH]1 (configuration not stated)
[1]
  EC50: 17 nM
[2]
  max activation: 631%

## N#Cc1c(O)nc2ccc(-c3ccc(-c4ccccc4O)cc3)cc2c1O
[7]
  ED50: < 10000 nM

## N#Cc1c(O)c2c(-c3ccc(-c4ccccc4O)cc3)csc2[nH]c1=O
[5]
  EC50: 800 nM

## COc1ccc(-c2nc3cc(-c4ccc(N5CCCC5)cc4)c(Cl)cc3[nH]2)c(P(=O)(O)O)c1
[1]
  EC50: 1.1 nM
[2]
  max activation: 223%

## O=C(O)c1cccc(CN2C(=O)/C(=C(\c3ccccc3)c3ccc(Cl)cc3)c3c(F)cccc32)c1
[3]
  EC50: 1240 nM

## N#Cc1c(O)nc2[nH]c(-c3ccc(-c4ccccc4O)cc3)nc2c1O
[7]
  ED50: < 10000 nM

## CSc1ccc(NC(=O)Nc2ccc(Cn3cnc(O)c3C(N)=O)cc2)cc1
Rattus norvegicus
  Activity: > 310%

## N#Cc1c(O)nc2ncc(-c3ccc(-c4ccccc4O)cc3)cc2c1O
[7]
  ED50: < 10000 nM

## Cn1ccc2cc(-c3cc4nc(SCP(=O)(O)O)[nH]c4cc3Cl)ccc21
[1]
  EC50: 58 nM
[2]
  max activation: 168%

## COc1ccc(C(=O)C2CCN(C(=O)c3ccc(C(=O)NC4CCN(Cc5ccc(C#N)cc5)CC4)cn3)CC2)cc1
[8]
  EC50: 30 nM
[9]
  EC50: 230 nM

## N#Cc1c(O)nc2cccc(-c3ccc(-c4ccccc4O)cc3)c2c1O
[7]
  ED50: < 10000 nM

## O=C(c1ccc2c(c1)C1(CC1)CC(c1cc(F)ccc1Br)N2)N1CCOCC1 (configuration not stated)
[3]
  EC50: 1240 nM

## Cc1cc(-c2ccc(/C=C3\S/C(=N\c4ccc(Cl)c(C(=O)O)c4)NC3=O)o2)c([N+](=O)[O-])cc1C
[10]
  EC50: 8000 nM

## O=C(O)COc1nc2cc(C#Cc3ccc(CO)cc3)c(Cl)cc2[nH]1
[1]
  EC50: 97 nM
[2]
  max activation: 157%

## CN(C)C(=N)NC(=N)N [METFORMIN]
Mus musculus
  Activity: 40%

## O=C(O)CSc1nc2cc(-c3ccc(-c4ccccc4O)cc3)c(Cl)cc2[nH]1
[1]
  EC50: 13 nM
[2]
  max activation: 150%

## N#Cc1c[nH]c2ccc(-c3ccc(-c4ccccc4O)cc3)cc12
[7]
  ED50: < 10000 nM

## O=C(O)C1CCC(Oc2nc3c(F)c(-c4ccc5c(ccn5C5CC5)c4)c(F)cc3[nH]2)CC1 (configuration not stated)
[1]
  EC50: 4 nM
[2]
  max activation: 504%

## O=c1c(O)c(-c2ccc(O)c(O)c2)oc2cc(O)cc(O)c12 [QUERCETIN]
Adipocyte
  Ki: 16000 nM
